Laboratory results as given in patent EP0908457B1, “3-(1,2-benzisothiazol- and isoxazol-5-Y1)-2,4(1H,3H)-pyrimidinedione or thione and 3-(1,2-benzisothiazol- and isoxazol-5-y1)-4(3H)-pyrimidinone or thione herbicidal agents” (BASF AKTIENGESELLSCHAFT, priority 1997, dated 1999).

Legend:
[1] = tested on: Cyperus serotinus, Rottb.; assay: Preemergence weed control under flooded paddy conditions, CYPSE (Flatsedge); format: in vivo; details: preemergence, rated three to four weeks after treatment; further: meaning of each grade not given here
[2] = tested on: Monochoria vaginalis, Presl.; assay: Postemergence weed control under flooded paddy conditions, MOOVA (Monochoria); format: in vivo; details: rated three to four weeks after treatment
Sagittaria pygmaea, L. [3] = assay: Postemergence weed control under flooded paddy conditions, SAGPY (Arrowhead (Pygmaea)); format: in vivo; details: rated three to four weeks after treatment
[4] = tested on: Oryza sativa, (L.) Tebonnet; assay: Rice tolerance to post-transplant applications under flooded paddy conditions (Example 187), ORYSAT (Rice, Tebonnet); details: rated three to four weeks after treatment
[5] = tested on: Monochoria vaginalis, Presl.; assay: Preemergence weed control under flooded paddy conditions, MOOVA (Monochoria); format: in vivo; details: preemergence, flooded paddy, rated three to four weeks after treatment; further: meaning of each grade not given here
[6] = tested on: Echinochloa oryzoides (Ard.) Fritsch.; assay: Preemergence weed control under flooded paddy conditions, ECHORC (Watergrass (Calif.)); format: in vivo; details: preemergence, flooded paddy, rated three to four weeks after treatment; further: meaning of each grade not given here
[7] = tested on: Cyperus serotinus, Rottb.; assay: Postemergence weed control under flooded paddy conditions, CYPSE (Flatsedge); format: in vivo; details: rated three to four weeks after treatment
Cyperus iria [8] = assay: Preemergence weed control under flooded paddy conditions, CYPIR (Rice Flatsedge); format: in vivo; details: preemergence, flooded paddy, rated three to four weeks after treatment; further: meaning of each grade not given here
Sagittaria pygmaea, L. [9] = assay: Preemergence weed control under flooded paddy conditions, SAGPY (Arrowhead (Pygmaea)); format: in vivo; details: preemergence, flooded paddy, rated three to four weeks after treatment; further: meaning of each grade not given here
[10] = tested on: Oryza sativa, (L.) Tebonnet; assay: Rice tolerance to post-transplant applications under flooded paddy conditions (Example 188), ORYSAT (Rice, Tebonnet); details: rated three to four weeks after treatment
Cyperus iria [11] = assay: Postemergence weed control under flooded paddy conditions, CYPIR (Rice Flatsedge); format: in vivo; details: rated three to four weeks after treatment
[12] = tested on: Echinochloa oryzoides (Ard.) Fritsch.; assay: Postemergence weed control under flooded paddy conditions, ECHORC (Watergrass (Calif.)); format: in vivo; details: rated three to four weeks after treatment

COC(=O)C(C)Oc1cc(C)c(C)cc1-c1nsc2ccc(-n3c(=O)cc(C(F)(F)F)n(C)c3=O)cc12 (stereo not drawn) [Example 13, Methyl 2-{{6-{5-[3,6-dihydro-3-methyl-4-(trifluoromethyl)-2,6-dioxo-1(2H)-pyrimidinyl]-1,2-benzisothiazol-3-yl}-3,4-xylyl}oxy}propionate]
8.0: herbicidal effect rating, SAGPY (Sagittaria pygmaea, L. [9]; 0.2500 kg/ha) | herbicidal effect rating, ECHORC ([12]; Rate 0.2500 kg/ha)
7.0: herbicidal effect rating, CYPSE ([1]; 0.1250 kg/ha) | herbicidal effect rating, CYPSE ([1]; 0.2500 kg/ha) | herbicidal effect rating, CYPSE ([1]; 0.5000 kg/ha) | herbicidal effect rating, ORYSAT (rice tolerance) ([4]; 0.1250 kg/ha) | herbicidal effect rating, ORYSAT (rice tolerance) ([4]; 0.2500 kg/ha) | herbicidal effect rating, ORYSAT (rice tolerance) ([10]; Rate 0.5000 kg/ha)
0.0: herbicidal effect rating, CYPSE ([1]; 0.0313 kg/ha) | herbicidal effect rating, SAGPY (Sagittaria pygmaea, L. [3]; Rate 0.0313 kg/ha) | herbicidal effect rating, SAGPY (Sagittaria pygmaea, L. [3]; Rate 0.0625 kg/ha) | herbicidal effect rating, CYPSE ([7]; Rate 0.0313 kg/ha) | herbicidal effect rating, CYPSE ([7]; Rate 0.0625 kg/ha) | herbicidal effect rating, SAGPY (Sagittaria pygmaea, L. [9]; 0.0313 kg/ha) | herbicidal effect rating, ECHORC ([12]; Rate 0.0313 kg/ha)
6.0: herbicidal effect rating, ORYSAT (rice tolerance) ([4]; 0.0625 kg/ha) | herbicidal effect rating, SAGPY (Sagittaria pygmaea, L. [9]; 0.1250 kg/ha) | herbicidal effect rating, ECHORC ([12]; Rate 0.1250 kg/ha)
9.0: herbicidal effect rating, MOOVA ([2]; Rate 0.0313 kg/ha) | herbicidal effect rating, MOOVA ([2]; Rate 0.0625 kg/ha) | herbicidal effect rating, MOOVA ([2]; Rate 0.1250 kg/ha) | herbicidal effect rating, MOOVA ([2]; Rate 0.2500 kg/ha) | herbicidal effect rating, MOOVA ([2]; Rate 0.5000 kg/ha) | herbicidal effect rating, SAGPY (Sagittaria pygmaea, L. [3]; Rate 0.5000 kg/ha) | herbicidal effect rating, ORYSAT (rice tolerance) ([4]; 0.5000 kg/ha) | herbicidal effect rating, MOOVA ([5]; 0.0313 kg/ha) | herbicidal effect rating, MOOVA ([5]; 0.0625 kg/ha) | herbicidal effect rating, MOOVA ([5]; 0.1250 kg/ha) | herbicidal effect rating, MOOVA ([5]; 0.2500 kg/ha) | herbicidal effect rating, MOOVA ([5]; 0.5000 kg/ha) | herbicidal effect rating, ECHORC ([6]; 0.0313 kg/ha) | herbicidal effect rating, ECHORC ([6]; 0.0625 kg/ha) | herbicidal effect rating, ECHORC ([6]; 0.1250 kg/ha) | herbicidal effect rating, ECHORC ([6]; 0.2500 kg/ha) | herbicidal effect rating, ECHORC ([6]; 0.5000 kg/ha) | herbicidal effect rating, CYPIR (Cyperus iria [8]; 0.0313 kg/ha) | herbicidal effect rating, CYPIR (Cyperus iria [8]; 0.0625 kg/ha) | herbicidal effect rating, CYPIR (Cyperus iria [8]; 0.1250 kg/ha) | herbicidal effect rating, CYPIR (Cyperus iria [8]; 0.2500 kg/ha) | herbicidal effect rating, CYPIR (Cyperus iria [8]; 0.5000 kg/ha) | herbicidal effect rating, SAGPY (Sagittaria pygmaea, L. [9]; 0.5000 kg/ha) | herbicidal effect rating, CYPIR (Cyperus iria [11]; Rate 0.0313 kg/ha) | herbicidal effect rating, CYPIR (Cyperus iria [11]; Rate 0.0625 kg/ha) | herbicidal effect rating, CYPIR (Cyperus iria [11]; Rate 0.1250 kg/ha) | herbicidal effect rating, CYPIR (Cyperus iria [11]; Rate 0.2500 kg/ha) | herbicidal effect rating, CYPIR (Cyperus iria [11]; Rate 0.5000 kg/ha) | herbicidal effect rating, ECHORC ([12]; Rate 0.5000 kg/ha)
2.0: herbicidal effect rating, CYPSE ([1]; 0.0625 kg/ha) | herbicidal effect rating, SAGPY (Sagittaria pygmaea, L. [3]; Rate 0.1250 kg/ha) | herbicidal effect rating, SAGPY (Sagittaria pygmaea, L. [3]; Rate 0.2500 kg/ha) | herbicidal effect rating, CYPSE ([7]; Rate 0.1250 kg/ha) | herbicidal effect rating, CYPSE ([7]; Rate 0.5000 kg/ha) | herbicidal effect rating, SAGPY (Sagittaria pygmaea, L. [9]; 0.0625 kg/ha) | herbicidal effect rating, ORYSAT (rice tolerance) ([10]; Rate 0.0313 kg/ha) | herbicidal effect rating, ORYSAT (rice tolerance) ([10]; Rate 0.0625 kg/ha) | herbicidal effect rating, ECHORC ([12]; Rate 0.0625 kg/ha)
4.0: herbicidal effect rating, ORYSAT (rice tolerance) ([4]; 0.0313 kg/ha) | herbicidal effect rating, CYPSE ([7]; Rate 0.2500 kg/ha) | herbicidal effect rating, ORYSAT (rice tolerance) ([10]; Rate 0.1250 kg/ha) | herbicidal effect rating, ORYSAT (rice tolerance) ([10]; Rate 0.2500 kg/ha)
